In patent US8163909B2, “Substituted hydroxyethyl amine compounds as beta-secretase modulators and methods of use” (Amgen Inc., priority 2007, dated 2012):
Read-outs that look alike come from different tables or passages of the source.

How the values were obtained:
[1] = biological target: Beta Secretase enzyme (BACE) (Homo sapiens, UniProt P56817); test: In vitro enzymatic BACE FRET (fluorescence resonance energy transfer) assay; assay type: biochemical; conditions: BACE enzyme FRET assay; read-out: BACE1 FRET assay (IC50);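 note: fluorescence read after 1 h with 50 nM quenched peptide substrate spanning the BACE cleavage site, in pH 4.2 acetate buffer containing 10% DMSO and nonionic detergent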
[2] = system: Aβ40 in conditioned medium of cells stably expressing Amyloid Precursor Protein (APP); test: In vitro BACE cell-based assay (Aβ40 in conditioned medium, sandwich ELISA); conditions: cell-based assay, read-out: HEK cell assay (IC50);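 note: compounds added as a dilution series, secreted peptide quantified by europium time-resolved fluorescence readout, potency fitted from percent of control versus compound concentration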
[3] = Homo sapiens, HEK293, HEK cells

Chain of Beta Secretase enzyme (BACE) (P56817 46-501): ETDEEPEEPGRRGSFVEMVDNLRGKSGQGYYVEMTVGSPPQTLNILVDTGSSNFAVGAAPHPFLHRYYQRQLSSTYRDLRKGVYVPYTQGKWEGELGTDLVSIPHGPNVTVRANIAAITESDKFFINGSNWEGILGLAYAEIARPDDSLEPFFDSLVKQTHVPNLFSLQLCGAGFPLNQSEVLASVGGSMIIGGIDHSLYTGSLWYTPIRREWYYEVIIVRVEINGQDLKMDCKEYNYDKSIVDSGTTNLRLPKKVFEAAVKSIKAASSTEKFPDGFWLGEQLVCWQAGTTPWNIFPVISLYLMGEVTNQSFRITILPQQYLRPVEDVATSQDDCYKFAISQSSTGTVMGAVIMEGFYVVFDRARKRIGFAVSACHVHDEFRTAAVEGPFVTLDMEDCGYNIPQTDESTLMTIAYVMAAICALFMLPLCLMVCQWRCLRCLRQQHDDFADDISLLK

COCC(=O)NC(Cc1ccc2c(c1)OCO2)C(O)CNC1CC2(CC(F)C2)Oc2ncc(CC(C)(C)C)cc21 [compound 240, N-((1S,2R)-1-(1,3-benzodioxol-5-ylmethyl)-3-(((1s,3S,4′S)-6′-(2,2-dimethylpropyl)-3-fluoro-3′,4′-dihydrospiro[cyclobutane-1,2′-pyrano[2,3-b]pyridin]-4′-yl)amino)-2-hydroxypropyl)-2-(methyloxy)acetamide]
IC50 [1]: 87 nM
IC50 [2, 3]: 108 nM

COC(C)C(=O)NC(Cc1ccc2c(c1)OCO2)C(O)CNC1CC2(CC(F)C2)Oc2ncc(CC(C)(C)C)cc21 [compound 241, (2R)—N-((1S,2R)-1-(1,3-benzodioxol-5-ylmethyl)-3-(((1s,3S,4′S)-6′-(2,2-dimethylpropyl)-3-fluoro-3′,4′-dihydrospiro[cyclobutane-1,2′-pyrano[2,3-b]pyridin]-4′-yl)amino)-2-hydroxypropyl)-2-(methyloxy)propanamide]
IC50 [1]: 6.28 nM
IC50 [2, 3]: 33.6 nM

COCC(=O)NC(Cc1ccc2c(c1)OCO2)C(O)CNC1CC2(CC(O)C2)Oc2cnccc21 [compound 242, N-((1S,2R)-1-(1,3-benzodioxol-5-ylmethyl)-2-hydroxy-3-(((1s,3S,4′S)-3-hydroxy-3′,4′-dihydrospiro[cyclobutane-1,2′-pyrano[2,3-c]pyridin]-4′-yl)amino)propyl)-2-(methyloxy)acetamide]
IC50 [1]: 23900 nM
IC50 [2, 3]: 1160 nM

COC(C)C(=O)NC(Cc1ccc2c(c1)OCO2)C(O)CNC1CC2(CC(O)C2)Oc2cnccc21 [compound 243, (2R)—N-((1S,2R)-1-(1,3-benzodioxol-5-ylmethyl)-2-hydroxy-3-(((1s,3S,4′S)-3-hydroxy-3′,4′-dihydrospiro[cyclobutane-1,2′-pyrano[2,3-c]pyridin]-4′-yl)amino)propyl)-2-(methyloxy)propanamide]
IC50 [1]: 36100 nM
IC50 ([2]; HEK cells): 3330 nM

COCC(=O)NC(Cc1ccc2c(c1)OCO2)C(O)CNC1CC2(CC(O)C2)Oc2ncc(CC(C)C)cc21 [compound 246, N-((1S,2R)-1-(1,3-benzodioxol-5-ylmethyl)-2-hydroxy-3-(((1s,3S,4′S)-3-hydroxy-6′-(2-methylpropyl)-3′,4′-dihydrospiro[cyclobutane-1,2′-pyrano[2,3-b]pyridin]-4′-yl)amino)propyl)-2-(methyloxy)acetamide]
IC50 [1]: 13.5 nM
IC50 [2, 3]: 16.4 nM

CC(=O)NC(Cc1ccc2c(c1)OCO2)C(O)CNC1CC2(CC(O)C2)Oc2ncc(CC(C)C)cc21 [compound 247, N-((1S,2R)-1-(1,3-benzodioxol-5-ylmethyl)-2-hydroxy-3-(((1s,3S,4′S)-3-hydroxy-6′-(2-methylpropyl)-3′,4′-dihydrospiro[cyclobutane-1,2′-pyrano[2,3-b]pyridin]-4′-yl)amino)propyl)acetamide]
IC50 [1]: 6.77 nM
IC50 [2, 3]: 13.2 nM

COC(C)C(=O)NC(Cc1ccc2c(c1)OCO2)C(O)CNC1CC2(CC(O)C2)Oc2ncc(CC(C)C)cc21 [compound 248, (2R)—N-((1S,2R)-1-(1,3-benzodioxol-5-ylmethyl)-2-hydroxy-3-(((1s,3S,4′S)-3-hydroxy-6′-(2-methylpropyl)-3′,4′-dihydrospiro[cyclobutane-1,2′-pyrano[2,3-b]pyridin]-4′-yl)amino)propyl)-2-(methyloxy)propanamide]
IC50 [1]: 17.2 nM
IC50 [2, 3]: 35 nM

COCC(=O)NC(Cc1ccc(F)cc1)C(O)CNC1CC2(CC(O)C2)Oc2ncc(CC(C)C)cc21 [compound 249, N-((1S,2R)-1-((4-fluorophenyl)methyl)-2-hydroxy-3-(((1s,3S,4′S)-3-hydroxy-6′-(2-methylpropyl)-3′,4′-dihydrospiro[cyclobutane-1,2′-pyrano[2,3-b]pyridin]-4′-yl)amino)propyl)-2-(methyloxy)acetamide]
IC50 [1]: 6.5 nM
IC50 [2, 3]: 11.3 nM

CO[C@H](C)C(=O)N[C@@H](Cc1ccc(F)cc1)[C@H](O)CN[C@H]1C[C@]2(C[C@H](O)C2)Oc2ncc(CC(C)C)cc21 [compound 250, (2R)—N-((1S,2R)-1-((4-fluorophenyl)methyl)-2-hydroxy-3-(((1s,3S,4′S)-3-hydroxy-6′-(2-methylpropyl)-3′,4′-dihydrospiro[cyclobutane-1,2′-pyrano[2,3-b]pyridin]-4′-yl)amino)propyl)-2-(methyloxy)propanamide]
IC50 [1]: 12.8 nM
IC50 ([2]; HEK cells): 27.3 nM

CC(=O)NC(Cc1ccc(F)cc1)C(O)CNC1CC2(CC(O)C2)Oc2ncc(CC(C)C)cc21 [compound 251, N-((1S,2R)-1-((4-fluorophenyl)methyl)-2-hydroxy-3-(((1s,3S,4′S)-3-hydroxy-6′-(2-methylpropyl)-3′,4′-dihydrospiro[cyclobutane-1,2′-pyrano[2,3-b]pyridin]-4′-yl)amino)propyl)acetamide]
IC50 [1]: 6.34 nM
IC50 [2, 3]: 11.8 nM

COCC(=O)N[C@@H](Cc1cccc(F)c1)[C@H](O)CN[C@H]1CC2(CCC2)Oc2cnc(CC(C)(C)F)cc21 [compound 252]
IC50 [1]: 23.6 nM
IC50 [2, 3]: 53.8 nM

CO[C@H](C)C(=O)N[C@@H](Cc1cccc(F)c1)[C@H](O)CN[C@H]1CC2(CCC2)Oc2cnc(CC(C)(C)F)cc21 [compound 253]
IC50 [1]: 36.2 nM
IC50 [2, 3]: 74.4 nM

CC(=O)N[C@@H](Cc1ccc(F)cc1)[C@H](O)CN[C@H]1CC2(CCC2)Oc2cnc(CC(C)(C)F)cc21 [compound 254]
IC50 [1]: 178 nM
IC50 [2, 3]: 152 nM

COCC(=O)N[C@@H](Cc1ccc(F)cc1)[C@H](O)CN[C@H]1CC2(CCC2)Oc2cnc(CC(C)(C)F)cc21 [compound 255]
IC50 [1]: 190 nM
IC50 [2, 3]: 216 nM

CO[C@H](C)C(=O)N[C@@H](Cc1ccc(F)cc1)[C@H](O)CN[C@H]1CC2(CCC2)Oc2cnc(CC(C)(C)F)cc21 [compound 256]
IC50 [1]: 226 nM
IC50 [2, 3]: 274 nM

COC(=O)C1CC2(C1)CC(NCC(O)C(Cc1ccc(F)cc1)NC(C)=O)c1cc(CC(C)(C)C)cnc1O2 [compound 257, methyl (1s,3R,4′S)-4′-(((2R,3S)-3-(acetylamino)-4-(4-fluorophenyl)-2-hydroxybutyl)amino)-6′-(2,2-dimethylpropyl)-3′,4′-dihydrospiro[cyclobutane-1,2′-pyrano[2,3-b]pyridine]-3-carboxylate]
IC50 [1]: 271 nM
IC50 ([2]; HEK cells): 372 nM

COC(=O)C1CC2(C1)CC(NCC(O)C(Cc1ccc(F)cc1)NC(C)=O)c1cc(CC(C)(C)C)cnc1O2 [compound 258, methyl (1r,3S,4′S)-4′-(((2R,3S)-3-(acetylamino)-4-(4-fluorophenyl)-2-hydroxybutyl)amino)-6′-(2,2-dimethylpropyl)-3′,4′-dihydrospiro[cyclobutane-1,2′-pyrano[2,3-b]pyridine]-3-carboxylate]
IC50 [1]: 38.9 nM
IC50 ([2]; HEK cells): 92.9 nM

CC(=O)NC(Cc1ccc(F)cc1)C(O)CNC1CC2(CC(CO)C2)Oc2ncc(CC(C)(C)C)cc21 [compound 259, N-((1S,2R)-3-(((1s,3R,4′S)-6′-(2,2-dimethylpropyl)-3-(hydroxymethyl)-3′,4′-dihydrospiro[cyclobutane-1,2′-pyrano[2,3-b]pyridin]-4′-yl)amino)-1-((4-fluorophenyl)methyl)-2-hydroxypropyl)acetamide]
IC50 [1]: 16000 nM
IC50 [2, 3]: 3330 nM

CC(=O)NC(Cc1ccc(F)cc1)C(O)CNC1CC2(CC(C#N)C2)Oc2ncc(CC(C)(C)C)cc21 [compound 260, N-((1S,2R)-3-(((1s,3R,4′S)-3-cyano-6′-(2,2-dimethylpropyl)-3′,4′-dihydrospiro[cyclobutane-1,2′-pyrano[2,3-b]pyridin]-4′-yl)amino)-1-((4-fluorophenyl)methyl)-2-hydroxypropyl)acetamide]
IC50 [1]: 98.7 nM
IC50 [2, 3]: 70.2 nM
